Test results as given in PubChem BioAssay (NCI).
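Cells were grown in 96-well plates and exposed to each compound for 48 hours at five concentrations; endpoints were interpolated linearly between bracketing concentrations, or set to the highest concentration if not reached. At the GI50, growth is halved. The concentration for full growth arrest is given as TGI.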

Tests used:
Assay in all cases: NCI-60 cell line screen, 48 h
[1] = tested on: K-562 leukemia
[2] = tested on: HCT-15 colon
[3] = tested on: OVCAR-3 ovarian
[4] = tested on: SK-OV-3 ovarian
[5] = tested on: U251 CNS
[6] = tested on: UACC-257 melanoma
[7] = tested on: UACC-62 melanoma
[8] = tested on: HS 578T breast
[9] = tested on: SK-MEL-5 melanoma
[10] = tested on: HT29 colon

Structure (SMILES) | GI50 [1] | TGI [1] | GI50 [2] | TGI [2] | GI50 [3] | TGI [3] | GI50 [4] | TGI [4] | GI50 [5] | TGI [5] | GI50 [6] | TGI [6] | GI50 [7] | TGI [7] | GI50 [8] | TGI [8] | GI50 [9] | TGI [9] | GI50 [10] | TGI [10]
C=CCC(N[C@H](CO)c1ccccc1)c1ccccn1 (stereo not given in full) | > 100 µM | > 100 µM | > 100 µM | > 100 µM | > 100 µM | > 100 µM | > 100 µM | > 100 µM | > 100 µM | > 100 µM | > 100 µM | > 100 µM | > 100 µM | > 100 µM | > 100 µM | > 100 µM | > 100 µM | > 100 µM | > 100 µM | > 100 µM
O=C(NCCCl)Nc1ccccc1 |  | > 100 µM |  | > 100 µM |  | > 100 µM |  | > 100 µM |  | > 100 µM |  | > 100 µM |  | > 100 µM |  | > 100 µM |  | > 100 µM |  | > 100 µM
CSc1ccc(NC(=O)Nc2cc(C)ccn2)cc1 |  | > 100 µM |  | > 100 µM |  | > 100 µM |  | > 100 µM |  | > 100 µM |  | > 100 µM |  | > 100 µM |  | > 100 µM |  | > 100 µM |  | > 100 µM
CC1=CC(C)(C)Nc2ccc(Cc3ccc4c(c3)C(C)=CC(C)(C)N4)cc21 | 3.6 µM | 51.8 µM | 13.8 µM | 72.6 µM | 6.4 µM | 21.3 µM | 17.7 µM | 97.1 µM | 3.96 µM | > 100 µM | 7.06 µM | 72.1 µM | 6.95 µM | 29 µM | 8.14 µM | 47.4 µM | 9.05 µM | 22 µM | 12.2 µM | > 100 µM
COc1c(B(O)O)cccc1-c1nc2ccc3[nH]ncc3c2c2c1CCCC2 | 3.4 µM | > 100 µM | 2.88 µM | 14.2 µM | 3.43 µM | 12.3 µM | 1.19 µM | 10.4 µM | 2.69 µM | 18.5 µM | 2.88 µM | 24.6 µM | 2.71 µM | 10.2 µM | 0.0622 µM | 7.92 µM | 3.18 µM | 12.5 µM | 3.17 µM | 16.4 µM
Cc1ccc(-c2c3c(nn2-c2ccc(S(=O)(=O)NC(=O)NC4CCCCC4)cc2)-c2ccccc2C3)cc1 | 3.1 µM | 13.5 µM | 16.1 µM | 47.7 µM | 17.7 µM | 35.7 µM | 18.9 µM | 42.4 µM | 12.3 µM | 26.9 µM | 23.7 µM | 49.6 µM | 16.9 µM | 32.2 µM | 20.5 µM | 60.4 µM | 1.33 µM | 9.39 µM | 24.3 µM | > 100 µM
CNCC(=O)NC(CO)C(=O)NC(CO)C(=O)NC1C(C(N)=O)OC(n2ccc(N)nc2=O)C(O)C1O (stereo not given) | > 50 µg/mL | > 50 µg/mL | 15.8 µg/mL | > 50 µg/mL | 8.43 µg/mL | 29.6 µg/mL | 7.66 µg/mL | 41.7 µg/mL | 10.9 µg/mL | > 50 µg/mL | 13.7 µg/mL | > 50 µg/mL | 2.88 µg/mL | 16.8 µg/mL | 1.21 µg/mL | 4.42 µg/mL | 16.1 µg/mL | > 50 µg/mL | 25.9 µg/mL | > 50 µg/mL
CN(C)c1cc2c(Nc3ccc4c(cnn4Cc4ccccc4)c3)ncnc2cn1 | 9.66 µM | > 25 µM | 9.6 µM | > 25 µM | 6.43 µM | > 25 µM | 0.104 µM | > 25 µM | 7.8 µM | 24.4 µM | 13.2 µM | > 25 µM | 6.96 µM | 19.9 µM | 16.6 µM | > 25 µM | 7.61 µM | > 20.5 µM | 8.98 µM | > 25 µM
C=C1C(=O)O[C@@H]2CC(CO)=C([C@@H](C)CCCO)[C@@H](OC(=O)/C(C)=C\C)[C@H]12 |  | 31.2 µM |  | 31.3 µM |  | 26.2 µM |  | > 100 µM |  | 37.6 µM |  | 38.1 µM |  | 47.8 µM |  | > 100 µM |  | 34.6 µM |  | 26.6 µM
OC(CN1CCCC2CCCCC21)c1cc2ccccc2c2ccccc12 (stereo not given) | 1.68 µM | 3.39 µM | 2.15 µM | 9.23 µM | 2.82 µM | 8.54 µM | 3.16 µM | 10.8 µM | 1.85 µM | 3.77 µM | 1.96 µM | 4.73 µM | 2.32 µM | 6.58 µM | 2.37 µM | 7.46 µM | 1.67 µM | 3.05 µM | 1.32 µM | 3.07 µM
C=C1C(=O)O[C@H]2[C@H]1CC/C(COC(=O)CCCCCCCC(=O)OC/C1=C/CC[C@@]3(C)O[C@H]3[C@H]3OC(=O)C(=C)[C@@H]3CC1)=C\CC[C@@]1(C)O[C@@H]21 | 0.927 µM | 10.8 µM | 1.75 µM | 4.16 µM | 1.32 µM | 2.79 µM | 13.1 µM | 34.3 µM | 2.13 µM | 5.37 µM | 2.13 µM | 4.64 µM | 2.45 µM | 6.51 µM | 3.84 µM | 27.3 µM | 1.98 µM | 4.1 µM | 2.02 µM | 4.23 µM
O=C(CSC(c1ccccc1)c1ccccc1)N/N=C/c1ccccc1Cl | 10.2 µM | 46.8 µM | 8.36 µM | > 51 µM | 15.6 µM | 57.3 µM | > 100 µM | > 100 µM | 25.8 µM | > 58.4 µM | 7.05 µM | 63.8 µM | 14.7 µM | > 63.5 µM | 9.64 µM | > 56.9 µM | 21 µM | 47.2 µM | > 63.2 µM | > 100 µM
CC(=O)O[C@@H]1C2=C(C)C3(CC3)[C@@](C)(O)C(=O)C2=C[C@@]1(C)CO | 0.482 µM | > 100 µM | 0.423 µM | 10.1 µM | 0.319 µM | 1.16 µM | 1.55 µM | 8.01 µM | 0.396 µM | > 36.1 µM | 1.65 µM | 5.38 µM | 1.71 µM | 3.59 µM | 1.68 µM | 5.75 µM | 1.73 µM | 3.2 µM | 0.322 µM | > 100 µM
C[C@H]1COCCN1c1nc(-c2cnc(N)cc2C(F)F)nc(N2CCOCC2)n1 | 0.692 µM | > 100 µM | 0.183 µM | > 100 µM | 0.224 µM | > 100 µM | 0.0614 µM | 0.412 µM | 0.368 µM | > 100 µM | 0.166 µM | 1.58 µM | 0.0794 µM | 0.401 µM | 0.1 µM | 0.551 µM | 0.15 µM | 0.651 µM | 0.176 µM | > 100 µM
Cn1c2c(c3ccccc3c1=O)C(=O)c1ccccc1-2 |  | > 100 µM |  | > 100 µM |  | > 100 µM |  | > 100 µM |  | > 100 µM |  | > 100 µM |  | > 100 µM |  | > 100 µM |  | > 100 µM |  | > 100 µM
